Laboratory results from patent US5463118A, “N-(l-aspartyl)amino alcohol derivative and sweetener containing the same” (Takasago International Corporation, priority 1987, dated 1995).
Read-outs that look alike come from different tables or passages of the source. Where a SMILES comes first, the peptide text is derived from it.

What was measured:
[1] = degree of sweetness of L-aspartyl fenchyl amino alcohols by absolute configuration at (a) and (b); details: for Degree of sweetness: R1 methyl, R2 fenchyl, absolute configuration (a),(b)
Protocol: Subsequent studies by the inventors have disclosed that the sweetness essentially depends on the absolute configuration at the (a) and (b) positions in the following formula (i). For example, compounds of the following general formula: [drawing 1]
wherein R1 is methyl group while R2 is fenchyl group:
The absolute configurations at the (a) and (b) positions are determined by resolving amino alcohol derivatives with tartaric acid to thereby give p-bromobenzoic acid amide derivatives of the following formula (ii) and then analyzing the crystal structures thereof with X-rays: [drawing 2]

[2] = sweetness characteristics in standard cola beverage, nine panelists; details: cola beverage stored at 37° C. for 26 days, 1 extremely poor to 9 extremely excellent, sweetener at 30 to 520 ppm
Protocol: The sweetness characteristics were evaluated in the following manner.
A standard beverage was prepared by adding the following materials to 1600 ml of carbonated water:
Various sweeteners were added to the standard beverage each at a definite concentration. The beverages thus obtained were stored at 37° C. for 26 days and then evaluated by nine panelists according to the following criterion.

[3] = degree of sweetness based on sucrose of compounds of differing absolute configuration; details: for Degree of sweetness based on sucrose: Table 2
Protocol: Compounds of absolute configurations (a) and (b) of (RS,RS) and (S,S) were prepared by way of trial, and the degrees and characteristics of sweetness thereof were evaluated.

[4] = taste intensity threshold value by a limit method, panel of five skilled flavorists; details: for Taste intensity threshold value: dissolved in water, limit method, five skilled flavorists; for Degree of sweetness: sucrose = 1, from Table 1
Protocol: Each of (2R,3R)-3-N-(L-aspartyl)amino-1-2-butanol (XVI') obtained in Example 2, 2-8), which will be referred to as "compound A" hereinafter, the (2R,3R)-3-N-(L-aspartyl)amino-1-2-butanol (XVII) obtained in Example 1, 1-15), which will be referred to as "compound B" hereinafter, APM and sucrose was dissolved in water. The threshold value of each compound was determined by a limit method by a panel consisting of five skilled flavorists.

[5] = stability of aqueous solution (percent remaining by HPLC, 0.1M phosphate buffer pH 4.0, 80° C.); assay type: physicochemical; details: general statement
Protocol: Each of compounds A and B, APM and L-aspartyl-DL-aminomalonic acid methyl fenchyl ester as disclosed in JP-A-49-30566, which will be abbreviated as "AMF" hereinafter, was dissolved in a 0.1M phosphate buffer solution (pH 4.0) at a concentration of 0.2%. The obtained solution was maintained at 80° C. and the percent remaining was monitored by high performance liquid chromatography with a lapse of time to thereby compare the stabilities of these solutions with each other.

solubility in water = assay type: physicochemical
[6] = sweetness characteristics of diluted aqueous solution
[7] = versus APM; cited from earlier work
[8] = among dipeptide esters known so far; cited from earlier work

SMILES: CC(NC(=O)[C@@H](N)CC(=O)O)C(O)C[C@@H]1C(C)(C)[C@@H]2CC[C@@]1(C)C2 (stereo partly drawn) [C, 3-N-(L-aspartyl)-amino-1-d-α-fenchyl-2-butanol]
- Degree of sweetness [1]: 1,800
- Average score [2]: 4.1
- Degree of sweetness based on sucrose [3]: 1,800 time

SMILES: C[C@@H](NC(=O)[C@@H](N)CC(=O)O)[C@H](O)C[C@@H]1C[C@@H]2CC[C@@]1(C)C2 [Compound B, (2R,3R)-3-N-(L-aspartyl)amino-1-2-butanol]
- Taste intensity threshold value [4]: 0.00018%
- Degree of sweetness [4]: 3,300 time
- Average score [2]: 6.3
- Degree of sweetness based on sucrose [3]: 3,300 time

SMILES: C[C@@H](NC(=O)[C@@H](N)CC(=O)O)[C@H](O)CC1CC2CCC1(C)C2 (stereo partly drawn) [(2R,3R)-3-N-(L-aspartyl)amino-1-(1-methyl-2-norbornyl)-2-butanol]
- heat stability [5]: good in heat stability
- stability in acidic aqueous solutions [5]: excellent in stability in acidic aqueous solutions
- solubility in water (solubility in water): highly soluble in water
- disagreeable tastes (bitter taste, bad taste, unpleasant aftertaste) [6]: almost no disagreeable tastes
- sweetness characteristics [6]: closely similar to those of sucrose

SMILES: CC(NC(=O)[C@@H](N)CC(=O)O)C(O)C[C@@H]1[C@@H]2CC[C@@H](C2)[C@H]1C (stereo partly shown)
- Average score [2]: 5.0
- Degree of sweetness based on sucrose [3]: 850 time

SMILES: C[C@H](NC(=O)[C@@H](N)CC(=O)O)[C@H](O)CC1C2(C)CCC(C2)C1(C)C (stereo partly drawn) [(S,R)]
- degree of sweetness, in words [1]: scarcely any sweetness
- Degree of sweetness [1]: 0

SMILES: C[C@@H](NC(=O)[C@@H](N)CC(=O)O)[C@H](O)CC1C2(C)CCC(C2)C1(C)C (stereo partly drawn) [(R,R)]
- degree of sweetness, in words [1]: highest degree of sweetness
- Degree of sweetness [1]: 12,500

SMILES: C[C@@H]1[C@H]2CC[C@H](C2)[C@H]1C[C@H](O)[C@H](C)NC(=O)[C@@H](N)CC(=O)O [(2S, 3S)-3-N-(L-aspartyl)amino-1-2-butanol]
- sweetness, in words [3]: scarcely any sweetness
- Degree of sweetness based on sucrose [3]: 0 time

SMILES: C[C@@H]1[C@H]2CC[C@H](C2)[C@H]1C[C@@H](O)[C@@H](C)NC(=O)[C@@H](N)CC(=O)O [Compound A, (2R,3R)-3-N-(L-aspartyl)amino-1-2-butanol]
- Taste intensity threshold value [4]: 0.00024%
- Degree of sweetness [4]: 2,500 time
- Average score [2]: 6.2
- Degree of sweetness based on sucrose [3]: 2,500 time

SMILES: CC(NC(=O)[C@@H](N)CC(=O)O)C(O)C[C@@H]1C[C@@H]2CC[C@@]1(C)C2 (stereo partly shown)
- Average score [2]: 5.1
- Degree of sweetness based on sucrose [3]: 800 time

SMILES: C[C@H](NC(=O)[C@@H](N)CC(=O)O)[C@@H](O)CC1C2(C)CCC(C2)C1(C)C (stereo partly drawn) [(S,S)]
- degree of sweetness, in words [1]: scarcely any sweetness
- Degree of sweetness [1]: 0

SMILES: COC(=O)[C@H](Cc1ccccc1)NC(=O)[C@@H](N)CC(=O)O [APM, L-aspartyl-L-phenylalanine methyl ester, reference compound] (H-Asp-Phe-OMe)
- Taste intensity threshold value [4]: 0.004%
- Degree of sweetness [4]: 150 time
- Average score [2]: 5.8
- Degree of sweetness based on sucrose [3]: 250 time

SMILES: COC(=O)C(NC(=O)[C@@H](N)CC(=O)O)C(=O)OC1C2(C)CCC(C2)C1(C)C (mixture of isomers) [AMF, L-aspartyl-DL-aminomalonic acid methyl fenchyl ester]
- stability at 80° C. and at a pH of 4 [7]: inferior to APM in stability at 80 °C and at a pH of 4
- degree of sweetness, in words [8]: highest degree of sweetness

SMILES: CC1C2CCC(C2)C1C[C@@H](O)[C@@H](C)NC(=O)[C@@H](N)CC(=O)O (stereo partly drawn) [(2R,3R)-3-N-(L-aspartyl)amino-1-(3-methyl-2-norbornyl)-2-butanol]
- heat stability [5]: good in heat stability
- stability in acidic aqueous solutions [5]: excellent in stability in acidic aqueous solutions
- solubility in water (solubility in water): highly soluble in water
- disagreeable tastes (bitter taste, bad taste, unpleasant aftertaste) [6]: almost no disagreeable tastes
- sweetness characteristics [6]: closely similar to those of sucrose

SMILES: C[C@@H](NC(=O)[C@@H](N)CC(=O)O)[C@@H](O)CC1C2(C)CCC(C2)C1(C)C (stereo partly drawn) [(R,S)]
- degree of sweetness, in words [1]: scarcely any sweetness
- Degree of sweetness [1]: 0

SMILES: OC[C@H]1O[C@@](CO)(O[C@H]2O[C@H](CO)[C@@H](O)[C@H](O)[C@H]2O)[C@@H](O)[C@@H]1O [Sucrose, sucrose, reference compound]
- Taste intensity threshold value [4]: 0.6%
- Degree of sweetness [4]: 1 time
